Laboratory results reported in patent EP4806891A1 (Kangbaida (Sichuan) Biotechnology Co., Ltd., priority 2023, dated 2025).

The compounds below were run on IL-6 (assay: In vivo inhibition assay of IL-6). Details: Mus musculus, ip; mice, test compound 1 mg/kg by gavage, 25 µg R848 intraperitoneally 1 h later, serum IL-6 2 h later; read-out: IL-6 inhibition rate (intraperitoneal injection after 1 h).
Set-up: species or system C57BL/6 female mice
Protocol: In vivo inhibition assay of IL-6
Experimental materials: Preparation of compound solutions: R848 was prepared with pure water (sterilized), with a final concentration of 25 µg/100 µL; the test compound was prepared with sodium citrate buffer at pH = 3, with a final concentration of 0.1 mg/mL.
Experimental animals: C57BL/6 female mice were purchased from GemPharmatech, aged 6-8 weeks.
Experimental methods: C57BL/6 female mice were randomly divided into a blank group, control group, and experimental group, with 8 in each group.
Blank group: Blood was collected from the mice after 12 h of fasting.
Control group: The mice were administered sodium citrate buffer at pH = 3 by gavage after 12 hours of fasting, and the remaining procedures were consistent with those of the experimental group.
Experimental group: After fasting for 12 h, the mice were administered with the test compound (1 mg/kg) by gavage, followed by an intraperitoneal injection of 25 µg R848 (purchased from MCE) 1 h later; 2 h later, the eyeballs were removed for blood collection, the serum was allowed to stand at room temperature for 30 min, then centrifuged for 10 min (3000 rpm), the supernatant was collected, and the serum IL-6 concentration was measured using an IL-6 ELISA kit. The IL-6 inhibition rate was calculated based on the serum IL-6 concentrations of the control and experimental groups. Calculation formula: inhibition rate = (C2-C3)/(C2-C1)×100%. • C1: serum IL-6 concentration of the blank group; • C2: serum IL-6 concentration of the control group; • C3: serum IL-6 concentration of the experimental group.
Four additional groups of experiments were performed separately according to the above experimental procedures, and the differences between these four groups and the above experiment were respectively: "25 µg R848 (purchased from MCE) was intraperitoneally injected after 4 h", "25 µg R848 (purchased from MCE) was intraperitoneally injected after 8 h", "25 µg R848 (purchased from MCE) was intraperitoneally injected after 16 h", and "25 µg R848 (purchased from MCE) was intraperitoneally injected after 24 h". Table 2: In vivo inhibition assay of IL-6

`CN1CCC(c2nnc([C@]34CN(c5ccc(C#N)n6ncc(F)c56)C[C@@]3(C(F)(F)F)C4)o2)CC1` [Compound 57, 3-fluoro-4-((1S,5R)-1-(5-(1-methylpiperidin-4-yl)-1,3,4-oxadiazol-2-yl)-5-(trifluoromethyl)-3-azabicyclo[3.1.0]hexan-3-yl)pyrazolo[1,5-a]pyridine-7-carbonitrile] was tested, and the inhibition at 1 mg/kg was over 90%.

The compounds below were run against T1, HEK-Blue-hTLR8 cells (Homo sapiens, UniProt Q9NR97) (assay: HEK-Blue-hTLR8 cell inhibition assay). Details: R848 3 µM, 16 h, OD 620 nm, read-out: TLR8 IC50.
T1 construct: expressed in transfected cells; host or cells: HEK-Blue-hTLR8 cells (HEK293-derived reporter line)
T1 sequence (Q9NR97 27-1041): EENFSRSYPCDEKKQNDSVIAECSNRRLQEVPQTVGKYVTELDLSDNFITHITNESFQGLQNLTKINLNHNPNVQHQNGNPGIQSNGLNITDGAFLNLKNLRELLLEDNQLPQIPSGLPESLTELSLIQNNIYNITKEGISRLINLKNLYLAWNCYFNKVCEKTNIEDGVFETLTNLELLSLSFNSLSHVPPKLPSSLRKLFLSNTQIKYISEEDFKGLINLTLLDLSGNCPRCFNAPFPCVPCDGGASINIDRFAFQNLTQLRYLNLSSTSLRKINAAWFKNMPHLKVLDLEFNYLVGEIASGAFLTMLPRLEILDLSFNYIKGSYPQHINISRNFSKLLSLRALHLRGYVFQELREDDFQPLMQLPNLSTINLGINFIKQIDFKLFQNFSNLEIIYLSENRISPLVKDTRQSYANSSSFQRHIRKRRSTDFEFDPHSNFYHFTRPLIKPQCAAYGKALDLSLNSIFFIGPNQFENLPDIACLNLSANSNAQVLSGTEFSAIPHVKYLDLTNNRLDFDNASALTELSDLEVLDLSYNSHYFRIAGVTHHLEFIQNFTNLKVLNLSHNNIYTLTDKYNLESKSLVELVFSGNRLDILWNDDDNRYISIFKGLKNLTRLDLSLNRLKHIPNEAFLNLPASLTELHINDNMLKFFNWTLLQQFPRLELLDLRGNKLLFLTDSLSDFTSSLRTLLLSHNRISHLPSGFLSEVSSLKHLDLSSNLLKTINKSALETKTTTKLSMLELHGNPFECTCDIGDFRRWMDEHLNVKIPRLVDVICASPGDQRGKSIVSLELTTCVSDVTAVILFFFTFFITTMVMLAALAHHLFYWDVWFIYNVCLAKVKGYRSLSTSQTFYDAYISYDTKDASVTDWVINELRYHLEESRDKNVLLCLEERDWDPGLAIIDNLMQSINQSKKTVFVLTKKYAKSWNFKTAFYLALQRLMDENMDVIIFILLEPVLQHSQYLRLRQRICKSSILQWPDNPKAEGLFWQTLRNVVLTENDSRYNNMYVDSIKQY
Type: cell-based
Summary of the method: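 Cells were pre-incubated 4 h, then co-treated 16 h at 37 °C with compound (10 doses, 0.5–10000 nM final) plus R848 (0.8 µM for TLR7, 3 µM for TLR8) or ODN2006 (1 µM, TLR9). Reporter OD620 gave inhibition relative to DMSO blank and agonist-only controls; IC50 came from curve fitting.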

`CN1CCC(c2nnc([C@]34CN(c5ccc(C#N)n6ncc(F)c56)C[C@@]3(C(F)(F)F)C4)o2)CC1` [Compound 57, 3-fluoro-4-((1S,5R)-1-(5-(1-methylpiperidin-4-yl)-1,3,4-oxadiazol-2-yl)-5-(trifluoromethyl)-3-azabicyclo[3.1.0]hexan-3-yl)pyrazolo[1,5-a]pyridine-7-carbonitrile] and `CN1CCC(c2nnc([C@]34CN(c5ccc(C#N)n6ncc(Cl)c56)C[C@@]3(C(F)(F)F)C4)o2)CC1` [Compound 84, 3-chloro-4-((1S,5R)-1-(5-(1-methylpiperidin-4-yl)-1,3,4-oxadiazol-2-yl)-5-(trifluoromethyl)-3-azabicyclo[3.1.0]hexan-3-yl)pyrazolo[1,5-a]pyridine-7-carbonitrile] cannot be ordered by IC50: under 100 nM for the first, under 1000 nM for the second.

`N#Cc1ccc(N2C[C@]3(c4nnc([C@H]5CN(CC(N)=O)CCO5)o4)C[C@]3(C(F)(F)F)C2)c2cccnc12` [Compound 56, 2-((R)-2-(5-((1S,5R)-3-(8-cyanoquinolin-5-yl)-5-(trifluoromethyl)-3-azabicyclo[3.1.0]hexan-1-yl)-1,3,4-oxadiazol-2-yl)morpholino)acetamide] and `N#Cc1ccc(N2C[C@]3(c4nnc(C5CCN(CC(N)=O)CC5)o4)C[C@]3(C(F)(F)F)C2)c2cccnc12` [Compound 17, 2-(4-(5-((1S,5R)-3-(8-cyanoquinolin-5-yl)-5-(trifluoromethyl)-3-azabicyclo[3.1.0]hexan-1-yl)-1,3,4-oxadiazol-2-yl)piperidin-1-yl)acetamide] cannot be ordered by IC50: under 100 nM for the first, under 100 nM for the second.

`CN1CCC(F)(c2nnc([C@]34CN(c5ccc(C#N)c6ncccc56)C[C@@]3(C(F)(F)F)C4)o2)C1` (stereo partly drawn) [Compound 47, 5-((1S,5R)-1-(5-(3-fluoro-1-methylpyrrolidin-3-yl)-1,3,4-oxadiazol-2-yl)-5-(trifluoromethyl)-3-azabicyclo[3.1.0]hexan-3-yl)quinoline-8-carbonitrile] and `CN1CC(F)(c2nnc([C@]34CN(c5ccc(C#N)c6ncccc56)C[C@@]3(C(F)(F)F)C4)o2)C1` [Compound 49, 5-((1S,5R)-1-(5-(3-fluoro-1-methylazetidin-3-yl)-1,3,4-oxadiazol-2-yl)-5-(trifluoromethyl)-3-azabicyclo[3.1.0]hexan-3-yl)quinoline-8-carbonitrile] cannot be ordered by IC50: under 100 nM for the first, under 100 nM for the second.

`CN(C)[C@H]1CC[C@H](c2nnc([C@]34CN(c5ccc(C#N)c6ncccc56)C[C@@]3(C(F)(F)F)C4)o2)CC1` [Compound 21, 5-((1S,5R)-1-(5-((1R,4S)-4-(dimethylamino)cyclohexyl)-1,3,4-oxadiazol-2-yl)-5-(trifluoromethyl)-3-azabicyclo[3.1.0]hexan-3-yl)quinoline-8-carbonitrile] and `N#Cc1ccc(N2C[C@]3(c4nnc([C@H]5CC[C@H](N)CC5)o4)C[C@]3(C(F)(F)F)C2)c2cccnc12` [Compound 20, 5-((1S,5R)-1-(5-((1R,4S)-4-aminocyclohexyl)-1,3,4-oxadiazol-2-yl)-5-(trifluoromethyl)-3-azabicyclo[3.1.0]hexan-3-yl)quinoline-8-carbonitrile] cannot be ordered by IC50: under 100 nM for the first, under 100 nM for the second.

`CN1[C@@H]2CC[C@H]1C[C@H](c1nnc([C@]34CN(c5ccc(C#N)c6ncccc56)C[C@@]3(C(F)(F)F)C4)o1)C2` [Compound 11, 5-((1S,5R)-1-(5-((1R,3S,5S)-8-methyl-8-azabicyclo[3.2.1]octan-3-yl)-1,3,4-oxadiazol-2-yl)-5-(trifluoromethyl)-3-azabicyclo[3.1.0]hexan-3-yl)quinoline-8-carbonitrile] and `CN1[C@@H]2CC[C@H]1C[C@H](c1nnc([C@]34CN(c5ccc(C(F)(F)F)c6ncccc56)C[C@@]3(C(F)(F)F)C4)o1)C2` [Compound 79, 2-((1R,3S,5S)-8-methyl-8-azabicyclo[3.2.1]octan-3-yl)-5-((1S,5R)-5-(trifluoromethyl)-3-(8-(trifluoromethyl)quinolin-5-yl)-3-azabicyclo[3.1.0]hexan-1-yl)-1,3,4-oxadiazole] cannot be ordered by IC50: under 100 nM for the first, under 100 nM for the second.

`CN1CCC(Oc2nnc([C@]34CN(c5ccc(C(F)(F)F)c6ncccc56)C[C@@]3(C(F)(F)F)C4)o2)CC1` [Compound 92, 2-((1-methylpiperidin-4-yl)oxy)-5-((1S,5R)-5-(trifluoromethyl)-3-(8-(trifluoromethyl)quinolin-5-yl)-3-azabicyclo[3.1.0]hexan-1-yl)-1,3,4-oxadiazole] and `FC(F)(F)c1ccc(N2C[C@]3(c4nnc(C5CCN(CC6CC6)CC5)o4)C[C@]3(C(F)(F)F)C2)c2cccnc12` [Compound 76, 2-(1-(cyclopropylmethyl)piperidin-4-yl)-5-((1S,5R)-5-(trifluoromethyl)-3-(8-(trifluoromethyl)quinolin-5-yl)-3-azabicyclo[3.1.0]hexan-1-yl)-1,3,4-oxadiazole] cannot be ordered by IC50: under 100 nM for the first, under 100 nM for the second.

`CN1CCC(Oc2nnc([C@]34CN(c5ccc(C#N)n6ncc(F)c56)C[C@@]3(C(F)(F)F)C4)o2)CC1` [Compound 31, 3-fluoro-4-((1S,5R)-1-(5-((1-methylpiperidin-4-yl)oxy)-1,3,4-oxadiazol-2-yl)-5-(trifluoromethyl)-3-azabicyclo[3.1.0]hexan-3-yl)pyrazolo[1,5-a]pyridine-7-carbonitrile] and `CN1CCC(Nc2nnc([C@]34CN(c5ccc(C#N)c6ncccc56)C[C@@]3(C(F)(F)F)C4)o2)CC1` [Compound 6, 5-((1S,5R)-1-(5-((1-methylpiperidin-4-yl)amino)-1,3,4-oxadiazol-2-yl)-5-(trifluoromethyl)-3-azabicyclo[3.1.0]hexan-3-yl)quinoline-8-carbonitrile] cannot be ordered by IC50: under 100 nM for the first, under 100 nM for the second.

`CN1CCC(Cc2nnc([C@]34CN(c5ccc(C#N)c6ncccc56)C[C@@]3(C(F)(F)F)C4)n2C)CC1` [Compound 38, 5-((1S,5R)-1-(4-methyl-5-((1-methylpiperidin-4-yl)methyl)-4H-1,2,4-triazol-3-yl)-5-(trifluoromethyl)-3-azabicyclo[3.1.0]hexan-3-yl)quinoline-8-carbonitrile] and `N#Cc1ccc(N2C[C@]3(c4nnc(CCN5CCOCC5)o4)C[C@]3(C(F)(F)F)C2)c2cccnc12` [Compound 43, 5-((1S,5R)-1-(5-(morpholinoethyl)-1,3,4-oxadiazol-2-yl)-5-(trifluoromethyl)-3-azabicyclo[3.1.0]hexan-3-yl)quinoline-8-carbonitrile] cannot be ordered by IC50: under 1000 nM for the first, under 100 nM for the second.

In the case of `CN(C)Cc1nnc([C@]23CN(c4ccc(C#N)c5ncccc45)C[C@@]2(C(F)(F)F)C3)o1` [Compound 42, 5-((1S,5R)-1-(5-((dimethylamino)methyl)-1,3,4-oxadiazol-2-yl)-5-(trifluoromethyl)-3-azabicyclo[3.1.0]hexan-3-yl)quinoline-8-carbonitrile], the IC50 is reported as under 1000 nM.
